Test results published in ChEMBL document CHEMBL4765470 (J Med Chem, 2021).
Non-standard residues stand in square brackets, D forms with d. Residues, ends and D or L forms follow the SMILES beside them. 1Nal = N[C@@H](Cc1cccc2ccccc12)C(=O)O; 2Nal = N[C@@H](Cc1ccc2ccccc2c1)C(=O)O; αMeF = C[C@](N)(Cc1ccccc1)C(=O)O; β3hF = N[C@H](CC(=O)O)Cc1ccccc1; Cha = N[C@@H](CC1CCCCC1)C(=O)O; Tle = CC(C)(C)[C@H](N)C(=O)O; Nle = CCCC[C@H](N)C(=O)O; Ac5c = NC1(C(=O)O)CCCC1

How the values were obtained:
Rattus norvegicus [1] = assay: Cardiorenal effect in Sprague-Dawley rat assessed as urinary output level at 9.9 nmol/kg/hr dosed by continuous infusion via osmotic mini pumps […] (reference value: 1.3 mL/kg/hr); format: functional
Rattus norvegicus [2] = assay: Cardiorenal effect in Sprague-Dawley rat assessed as water intake level at 9.9 nmol/kg/hr dosed by continuous infusion via osmotic mini pumps […] (reference value: 3.3 mL/kg/hr); format: functional
Rattus norvegicus [3] = assay: Cardiorenal effect in Sprague-Dawley rat assessed as increase left ventricular fractional shortening at 9.9 nmol/kg/hr dosed by continuous infusion via osmotic mini pumps measured after 6 hrs by echocardiography relative to base line in sham treated control; format: functional
Rattus norvegicus [4] = assay: Cardiorenal effect in Sprague-Dawley rat assessed as increase left ventricular fractional shortening at 9.9 nmol/kg/hr dosed by continuous infusion via osmotic mini pumps measured after 24 hrs by echocardiography relative to base line in sham treated control; format: functional
[5] = Cardiorenal effect in Sprague-Dawley rat assessed as reduction in blood pressure at 72 nmol/kg, iv […]; format: organism-based; conditions: in vivo
Apelin receptor [6] = target: T1, Apelin receptor (Homo sapiens, UniProt P35414); assay: Displacement of [125I] [NIe75, Tyr77]Pyr-apelin-13 from YFP-tagged human APJ receptor expressed in HEK293 cell membranes incubated for 1 hr by gamma counting based Cheng-Prusoff equation analysis
T1 sequence (P35414 whole entry): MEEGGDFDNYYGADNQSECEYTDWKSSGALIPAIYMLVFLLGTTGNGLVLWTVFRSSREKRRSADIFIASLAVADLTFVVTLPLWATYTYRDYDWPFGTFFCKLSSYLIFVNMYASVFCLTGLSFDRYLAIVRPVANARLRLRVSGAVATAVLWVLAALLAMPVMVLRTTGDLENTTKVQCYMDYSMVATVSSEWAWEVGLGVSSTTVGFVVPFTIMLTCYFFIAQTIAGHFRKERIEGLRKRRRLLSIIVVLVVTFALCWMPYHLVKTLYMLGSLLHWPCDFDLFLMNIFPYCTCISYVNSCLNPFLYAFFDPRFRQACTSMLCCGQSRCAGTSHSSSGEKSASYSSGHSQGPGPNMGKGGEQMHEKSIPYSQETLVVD

Apelin receptor [7] = target: T1, Apelin receptor; assay: Agonist activity at human APJ receptor expressed in HEK293 cells co-expressing Galpha(i1)-RlucII(91) assessed as induction of dissociation of Galpha(i1) from G-beta-gamma subunits incubated for 5 mins by BRET assay; format: cell-based
Apelin receptor [8] = target: T1, Apelin receptor; assay: Agonist activity at human APJ receptor expressed in HEK293T cells co-expressing PDZ-Rho-Gef-RLucll assessed as induction of Galpha12 effector (PDZ-RhoGEF) to the cell membrane incubated for 5 mins by BRET assay; format: functional, cell-based
Apelin receptor [9] = target: T1, Apelin receptor; assay: Agonist activity at human APJ receptor expressed in HEK293 cells co-expressing Rlucll-beta-arrestin2 assessed as induction of beta-arrestin2 recruitment to APJ incubated for 30 mins by BRET assay; format: cell-based
[10] = Cardiorenal effect in Sprague-Dawley rat assessed as reduction in blood pressure at 5 nmol/kg, iv […]; format: organism-based; conditions: in vivo
[11] = target: T2, Apelin receptor (Homo sapiens) (UniProt P35414); assay: Agonist activity at human APJ receptor expressed in HEK293 cells co-expressing […] assessed as induction of Galpha12 effector (PDZ-RhoGEF) to the cell membrane incubated for 5 mins by BRET assay relative to control; format: functional, cell-based; conditions: filed as agonist
T2 sequence (whole entry): T1 sequence (P35414 whole entry)

Ki (Apelin receptor [6]) [nM]	EC50 (Apelin receptor [7]) [nM]	EC50 (Apelin receptor [8]) [nM]	EC50 (Apelin receptor [9]) [nM]	Emax [11] [%]	Structure (SMILES)	Activity (Rattus norvegicus [1]) [mL/h/kg]	Activity (Rattus norvegicus [2]) [mL/h/kg]	Activity (Rattus norvegicus [3]) [%]	Activity (Rattus norvegicus [4]) [%]	Activity [5]	Activity [10]
					CCCC[C@H](N)C(=O)N1CCC[C@H]1C(=O)N[C@@H](CC(C)C)C(=O)N[C@@H](Cc1cnc[nH]1)C(=O)N[C@@H](CO)C(=O)N[C@@H](CCCNC(=N)N)C(=O)N[C@H](C(=O)N1CCC[C@H]1C(=O)N[C@@H](Cc1ccccc1)C(=O)N1CCC[C@H]1C(=O)O)C(C)C	2.7	4.5	11	19	Non-Toxic	
0.19	5.3	25	45		CSCC[C@H](NC(=O)[C@@H](NC(=O)[C@H](CC(C)C)NC(=O)[C@H](CC(N)=O)NC(=O)[C@@H](NC(=O)[C@@H]1CCCN1C(=O)[C@H](CCCNC(=N)N)NC(=O)[C@@H]1CCC(=O)N1)C(C)C)[C@@H](C)O)C(=O)N[C@@H](C)C(=O)N[C@@H](CCCNC(=N)N)C(=O)N[C@@H](CCCCN)C(=O)N[C@@H](CC(C)C)C(=O)N[C@@H](CCCNC(=N)N)C(=O)N[C@@H](CCCCN)C(=O)N[C@@H](Cc1cnc[nH]1)C(=O)N[C@@H](CC(N)=O)C(=O)N[C@H]1CSSC[C@@H](C(=O)N[C@@H](CCSC)C(=O)N2CCC[C@H]2C(=O)N[C@@H](CC(C)C)C(=O)N[C@@H](Cc2cnc[nH]2)C(=O)N[C@@H](CO)C(=O)N[C@@H](CCCNC(=N)N)C(=O)N[C@H](C(=O)N2CCC[C@H]2C(=O)N[C@@H](Cc2ccccc2)C(=O)N2CCC[C@H]2C(=O)O)C(C)C)NC(=O)[C@H](CCCNC(=N)N)NC(=O)[C@H](CCCNC(=N)N)NC(=O)[C@H](CCC(N)=O)NC(=O)[C@H](CC(C)C)NC1=O	3.5	5	18	27		<= 40 mmHg
21	23	1040	537		CCCC[C@H](N)C(=O)N1CCC[C@H]1C(=O)N[C@@H](CC(C)C)C(=O)N[C@@H](Cc1cnc[nH]1)C(=O)N[C@@H](CO)C(=O)N[C@@H](CCCNC(=N)N)C(=O)N[C@H](C(=O)N1CCC[C@H]1C(=O)N[C@@H](Cc1cccc2ccccc12)C(=O)N1CCC[C@H]1C(=O)O)C(C)C (H-[Nle]PLHSRVP[1Nal]P-OH)						
16	7	152	155		CCCC[C@H](N)C(=O)N1CCC[C@H]1C(=O)N[C@@H](CC(C)C)C(=O)N[C@@H](Cc1cnc[nH]1)C(=O)N[C@@H](CO)C(=O)N[C@@H](CCCNC(=N)N)C(=O)N[C@H](C(=O)N1CCC[C@H]1C(=O)N[C@@H](Cc1ccc2ccccc2c1)C(=O)N1CCC[C@H]1C(=O)O)C(C)C (H-[Nle]PLHSRVP[2Nal]P-OH)						
4	17	54	940	43	CCCC[C@H](N)C(=O)N1CCC[C@H]1C(=O)N[C@@H](CC(C)C)C(=O)N[C@@H](Cc1cnc[nH]1)C(=O)N[C@@H](CO)C(=O)N[C@@H](CCCNC(=N)N)C(=O)N[C@H](C(=O)N1CCC[C@H]1C(=O)N[C@@H](CC1CCCCC1)C(=O)N1CCC[C@H]1C(=O)O)C(C)C (H-[Nle]PLHSRVP[Cha]P-OH)						
19	5.1	740	182		CCCC[C@H](N)C(=O)N1CCC[C@H]1C(=O)N[C@@H](CC(C)C)C(=O)N[C@@H](Cc1cnc[nH]1)C(=O)N[C@@H](CO)C(=O)N[C@@H](CCCNC(=N)N)C(=O)N[C@H](C(=O)N1CCC[C@H]1C(=O)N[C@H](CC(=O)O)Cc1ccccc1)C(C)C (H-[Nle]PLHSRVP[β3hF]-OH)						
2.4	1.2	70	79		CCCC[C@H](N)C(=O)N1CCC[C@H]1C(=O)NC1(C(=O)N[C@@H](Cc2cnc[nH]2)C(=O)N[C@@H](CO)C(=O)N[C@@H](CCCNC(=N)N)C(=O)N[C@H](C(=O)N2CCC[C@H]2C(=O)N[C@@H](Cc2ccccc2)C(=O)N2CCC[C@H]2C(=O)O)C(C)C)CCCC1 (H-[Nle]P[Ac5c]HSRVPFP-OH)						
4	2.8	94	120		CCCC[C@H](N)C(=O)N1CCC[C@H]1C(=O)N[C@@H](CC1CCCCC1)C(=O)N[C@@H](Cc1cnc[nH]1)C(=O)N[C@@H](CO)C(=O)N[C@@H](CCCNC(=N)N)C(=O)N[C@H](C(=O)N1CCC[C@H]1C(=O)N[C@@H](Cc1ccccc1)C(=O)N1CCC[C@H]1C(=O)O)C(C)C (H-[Nle]P[Cha]HSRVPFP-OH)						
21	2.4	795	401		CCCC[C@H](N)C(=O)N1CCC[C@H]1C(=O)N[C@H](C(=O)N[C@@H](Cc1cnc[nH]1)C(=O)N[C@@H](CO)C(=O)N[C@@H](CCCNC(=N)N)C(=O)N[C@H](C(=O)N1CCC[C@H]1C(=O)N[C@@H](Cc1ccccc1)C(=O)N1CCC[C@H]1C(=O)O)C(C)C)C(C)(C)C (H-[Nle]P[Tle]HSRVPFP-OH)						
25	6.4	515	189		CCCC[C@H](N)C(=O)N1CCC[C@H]1C(=O)N[C@@](C)(Cc1ccccc1)C(=O)N[C@@H](Cc1cnc[nH]1)C(=O)N[C@@H](CO)C(=O)N[C@@H](CCCNC(=N)N)C(=O)N[C@H](C(=O)N1CCC[C@H]1C(=O)N[C@@H](Cc1ccccc1)C(=O)N1CCC[C@H]1C(=O)O)C(C)C (H-[Nle]P[αMeF]HSRVPFP-OH)						
